Assay results as given in article PMC10042540, “Targeting oncogenic KRasG13C with nucleotide-based covalent inhibitors” (eLife, 2023).

Tests used:
SOS = test: Guanine nucleotide-exchange factor assay (mantdGDP fluorescence); type: biochemical
Method: SOS-catalysed nucleotide exchange was monitored at 25 °C in a FluoroMax-3 spectrofluorometer (excitation at 360 nm, emission at 440 nm) in 20 mM HEPES (pH 7.5), 100 mM NaCl, 2 mM MgCl2, and 1 mM TCEP. 5 µM KRas1-169 was mixed with 10 µM mantdGDP and subsequently with different concentrations of SOS (0.25 µM and 0.5 µM) (Figure 3A; Figure 3—figure supplement 1).

pcRafS338 = test: Electroporation into HeLa cells, western blot quantification; type: cell-based, human; settings: for pcRaf mean fold change: mean of cell lysates
Method: (§1) HeLa cells were obtained from the American Type Culture Collection (ATCC) and were cultured in DMEM medium (Gibco) supplemented with 10% fetal bovine serum (FBS) (PAN-Biotech) and 1% penicillin/streptomycin (Gibco). Cells were cultured in a humidified incubator at 37 °C in the presence of 5% CO2. The identity of the cells was validated by STR profiling and the cells were tested negative for mycoplasma contamination.
(§2) Electroporation of full-length KRas constructs (KRasWT, KRasG13C, KRasG13C-edaGDP, KRasG13C:acetyledaGDP and KRasG13C-edaGppCp) was performed based on the protocol described by [Alex et al., 2019] using the Neon Transfection System Kit (Thermo Fisher). For electroporation, 3 million cells per experiment were harvested by trypsinization, washed with PBS, and resuspended in 85 µL of the electroporation buffer R (Thermo Fisher). Increasing amounts of recombinant protein samples for each construct (0, 50, 100, 200 and 300 µg) were diluted 1:1 in buffer R followed by the addition of 30 µL of this protein master mix to the cell suspension. This cellular slurry was loaded into a […] Neon Pipette Tip (Thermo Fisher) and electroporated with 2x35 ms pulses at 1000 V. After electroporation, the cells were washed twice with PBS (15 mL) to remove non-internalized extracellular protein and the cell pellet was resuspended in 2 mL complete growth media. Cells were transferred into six-well tissue culture plates (Sarstedt) and incubated for 24 hr at 37 °C and 5% CO2 in a humidified incubator for recovery before being processed for western blotting analysis.
(§3) After recovery of the electroporation, cells were washed twice with ice-cold PBS and lysed in 100 µL of phosphatase and protease inhibitor containing RIPA buffer (Cell Signaling Technology). Cells were incubated on ice for 30 min and then harvested by scraping followed by centrifugation at 14,000 rpm for 10 min at 4 °C. Protein concentrations were determined using the Pierce BCA protein assay (Thermo) following the manufacturer’s recommended procedure. Equal amounts of protein (10 µg) were analyzed by SDS-PAGE and transferred to Immobilon-FL PVDF membranes (Merck Millipore) using Pierce 1-step transfer buffer (Thermo) and the Pierce Power Blotter (Thermo). Membranes were washed with ddH2O for 5 min, blocked with OdysseyBlocking Buffer TBS (Li-Cor) for 1 hr at room temperature and then incubated with primary antibodies diluted in OdysseyBlocking Buffer TBS overnight at 4 °C with gentle agitation. KRas (Sigma Aldrich, SAB1404011-100UG), pcRafS338 (CST, 9427), tAkt1 (CST, 2938), pAktS473 (CST, 4060), tErk (CST, 4696), pErkT202/Y204 (CST, 4370), pS6S235/236 (CST, 4858), and β-actin (CST, 4970/Sigma-Aldrich, A5441) antibodies were used to detect the individual proteins. After primary antibody incubation, membranes were washed three times with TBS-T (50 mM Tris, 150 mM NaCl, 0.05% Tween 20, pH 7.4) for 5 min before being incubated with secondary antibodies (anti-mouse IgG (H+L) (DyLight 680 Conjugate) (CST, 5470) / anti-rabbit IgG (H+L) (DyLight 800 4 X PEG Conjugate) (CST, 5151)) diluted in OdysseyBlocking Buffer TBS for 1 hr at room temperature with gentle agitation. After secondary antibody incubation, the membranes were washed three times for 5 min with TBS-T and then scanned using an OdysseyCLx imaging system (Li-Cor). Quantification of protein levels from western blots was performed using Empiria Studio (Li-Cor) (Figure 3B, C, Figure 3—figure supplements 6–9).

pErkT202/Y204 = test: as above; type: cell-based, human; settings: for pErk mean fold change: mean of cell lysates
Method: as §1, §2, §3

tAkt1 = test: as above; type: cell-based, human; settings: for tAkt mean fold change: mean of cell lysates
Method: as §1, §2, §3

pS6S235/236 = test: as above; type: cell-based, human; settings: for pS6 mean fold change: mean of cell lysates
Method: as §1, §2, §3

tErk = test: as above; type: cell-based, human; settings: for tErk mean fold change: mean of cell lysates
Method: as §1, §2, §3

pAktS473 = test: as above; type: cell-based, human; settings: for pAkt mean fold change: mean of cell lysates
Method: as §1, §2, §3

[1] = system: Ras pathway (pcRaf, pAkt, pErk, pS6); test: Electroporation into HeLa cells, western blot of downstream signalling; type: cell-based, human; settings: electroporation of 50-300 µg protein
Method: as §1, §2
After recovery of the electroporation, cells were washed twice with ice-cold PBS and lysed in 100 µL of phosphatase and protease inhibitor containing RIPA buffer (Cell Signaling Technology). Cells were incubated on ice for 30 min and then harvested by scraping followed by centrifugation at 14,000 rpm for 10 min at 4 °C. Protein concentrations were determined using the Pierce BCA protein assay (Thermo) following the manufacturer’s recommended procedure. Equal amounts of protein (10 µg) were analyzed by SDS-PAGE and transferred to Immobilon-FL PVDF membranes (Merck Millipore) using Pierce 1-step transfer buffer (Thermo) and the Pierce Power Blotter (Thermo). Membranes were washed with ddH2O for 5 min, blocked with OdysseyBlocking Buffer TBS (Li-Cor) for 1 hr at room temperature and then incubated with primary antibodies diluted in OdysseyBlocking Buffer TBS overnight at 4 °C with gentle agitation. […] Quantification of protein levels from western blots was performed using Empiria Studio (Li-Cor) (Figure 3B, C, Figure 3—figure supplements 6–9).

“KRasG13C: recombinant oncogenic KRasG13C mutant protein, GDP-bound” was tested, and the SOS-catalysed nucleotide exchange (SOS; 5 µM KRas1-169, 10 µM mantdGDP, 0.25 or 0.5 µM SOS) was “efficiently catalysed nucleotide exchange”, the “intrinsic nucleotide exchange rate” value (SOS; absence of SOS) was “drastically increased” and the pcRaf fold change (pcRafS338; 50 µg, Cell lysate 1) was 1.43. For the same substance, the pcRaf fold change (pcRafS338; 50 µg, Cell lysate 2) was 2.59, the pcRaf fold change (pcRafS338; 50 µg, Cell lysate 3) was 1.91 and the “pcRaf mean fold change” value (pcRafS338; 50 µg) was 1.98. For the same substance, the pcRaf fold change (pcRafS338; 100 µg, Cell lysate 1) was 1.55, the pcRaf fold change (pcRafS338; 100 µg, Cell lysate 2) was 4.23 and the pcRaf fold change (pcRafS338; 100 µg, Cell lysate 3) was 1.55. The “pcRaf mean fold change” value (pcRafS338; 100 µg) was 2.44, the pcRaf fold change (pcRafS338; 200 µg, Cell lysate 1) was 1.46 and the pcRaf fold change (pcRafS338; 200 µg, Cell lysate 2) was 6.14. For the same substance, the pcRaf fold change (pcRafS338; 200 µg, Cell lysate 3) was 1.74, the “pcRaf mean fold change” value (pcRafS338; 200 µg) was 3.11 and the pcRaf fold change (pcRafS338; 300 µg, Cell lysate 1) was 1.29. The pcRaf fold change (pcRafS338; 300 µg, Cell lysate 2) was 6.29, the pcRaf fold change (pcRafS338; 300 µg, Cell lysate 3) was 1.50 and the “pcRaf mean fold change” value (pcRafS338; 300 µg) was 3.03. For the same substance, the pErk fold change (pErkT202/Y204; 50 µg, Cell lysate 1) was 5.54, the pErk fold change (pErkT202/Y204; 50 µg, Cell lysate 2) was 1.80 and the pErk fold change (pErkT202/Y204; 50 µg, Cell lysate 3) was 3.53. For the same substance, the “pErk mean fold change” value (pErkT202/Y204; 50 µg) was 3.62, the pErk fold change (pErkT202/Y204; 100 µg, Cell lysate 1) was 6.18 and the pErk fold change (pErkT202/Y204; 100 µg, Cell lysate 2) was 2.89. The pErk fold change (pErkT202/Y204; 100 µg, Cell lysate 3) was 3.58, the “pErk mean fold change” value (pErkT202/Y204; 100 µg) was 4.22 and the pErk fold change (pErkT202/Y204; 200 µg, Cell lysate 1) was 6.87. For the same substance, the pErk fold change (pErkT202/Y204; 200 µg, Cell lysate 2) was 3.48, the pErk fold change (pErkT202/Y204; 200 µg, Cell lysate 3) was 4.30 and the “pErk mean fold change” value (pErkT202/Y204; 200 µg) was 4.88. For the same substance, the pErk fold change (pErkT202/Y204; 300 µg, Cell lysate 1) was 9.07, the pErk fold change (pErkT202/Y204; 300 µg, Cell lysate 2) was 4.08 and the pErk fold change (pErkT202/Y204; 300 µg, Cell lysate 3) was 5.76. For the same substance, the “pErk mean fold change” value (pErkT202/Y204; 300 µg) was 6.30, the tAkt fold change (tAkt1; 50 µg, Cell lysate 1) was 1.94 and the tAkt fold change (tAkt1; 50 µg, Cell lysate 2) was 0.93. For the same substance, the tAkt fold change (tAkt1; 50 µg, Cell lysate 3) was 1.69, the “tAkt mean fold change” value (tAkt1; 50 µg) was 1.52 and the tAkt fold change (tAkt1; 100 µg, Cell lysate 1) was 2.66. For the same substance, the tAkt fold change (tAkt1; 100 µg, Cell lysate 2) was 0.74, the tAkt fold change (tAkt1; 100 µg, Cell lysate 3) was 1.08 and the “tAkt mean fold change” value (tAkt1; 100 µg) was 1.49. It also gave a tAkt fold change (tAkt1; 200 µg, Cell lysate 1) of 2.05, a tAkt fold change (tAkt1; 200 µg, Cell lysate 2) of 1.29 and a tAkt fold change (tAkt1; 200 µg, Cell lysate 3) of 1.44. The “tAkt mean fold change” value (tAkt1; 200 µg) was 1.59, the tAkt fold change (tAkt1; 300 µg, Cell lysate 1) was 1.78 and the tAkt fold change (tAkt1; 300 µg, Cell lysate 2) was 1.44. The tAkt fold change (tAkt1; 300 µg, Cell lysate 3) was 1.65, the “tAkt mean fold change” value (tAkt1; 300 µg) was 1.62 and the pS6 fold change (pS6S235/236; 50 µg, Cell lysate 1) was 1.14. For the same substance, the pS6 fold change (pS6S235/236; 50 µg, Cell lysate 2) was 1.57, the pS6 fold change (pS6S235/236; 50 µg, Cell lysate 3) was 1.40 and the “pS6 mean fold change” value (pS6S235/236; 50 µg) was 1.37. For the same substance, the pS6 fold change (pS6S235/236; 100 µg, Cell lysate 1) was 0.95, the pS6 fold change (pS6S235/236; 100 µg, Cell lysate 2) was 1.80 and the pS6 fold change (pS6S235/236; 100 µg, Cell lysate 3) was 1.21. For the same substance, the “pS6 mean fold change” value (pS6S235/236; 100 µg) was 1.32, the pS6 fold change (pS6S235/236; 200 µg, Cell lysate 1) was 1.17 and the pS6 fold change (pS6S235/236; 200 µg, Cell lysate 2) was 2.22. The pS6 fold change (pS6S235/236; 200 µg, Cell lysate 3) was 1.06, the “pS6 mean fold change” value (pS6S235/236; 200 µg) was 1.48 and the pS6 fold change (pS6S235/236; 300 µg, Cell lysate 1) was 1.44. The pS6 fold change (pS6S235/236; 300 µg, Cell lysate 2) was 2.42, the pS6 fold change (pS6S235/236; 300 µg, Cell lysate 3) was 1.24 and the “pS6 mean fold change” value (pS6S235/236; 300 µg) was 1.70. The tErk fold change (tErk; 50 µg, Cell lysate 1) was 0.88, the tErk fold change (tErk; 50 µg, Cell lysate 2) was 1.05 and the tErk fold change (tErk; 50 µg, Cell lysate 3) was 0.99. The “tErk mean fold change” value (tErk; 50 µg) was 0.97, the tErk fold change (tErk; 100 µg, Cell lysate 1) was 0.44 and the tErk fold change (tErk; 100 µg, Cell lysate 2) was 1.04. For the same substance, the tErk fold change (tErk; 100 µg, Cell lysate 3) was 1.00, the “tErk mean fold change” value (tErk; 100 µg) was 0.83 and the tErk fold change (tErk; 200 µg, Cell lysate 1) was 0.50. For the same substance, the tErk fold change (tErk; 200 µg, Cell lysate 2) was 1.05, the tErk fold change (tErk; 200 µg, Cell lysate 3) was 0.89 and the “tErk mean fold change” value (tErk; 200 µg) was 0.81. For the same substance, the tErk fold change (tErk; 300 µg, Cell lysate 1) was 0.97, the tErk fold change (tErk; 300 µg, Cell lysate 2) was 1.08 and the tErk fold change (tErk; 300 µg, Cell lysate 3) was 0.89. For the same substance, the “tErk mean fold change” value (tErk; 300 µg) was 0.98, the pAkt fold change (pAktS473; 50 µg, Cell lysate 1) was 1.68 and the pAkt fold change (pAktS473; 50 µg, Cell lysate 2) was 1.22. The pAkt fold change (pAktS473; 50 µg, Cell lysate 3) was 2.21, the “pAkt mean fold change” value (pAktS473; 50 µg) was 1.70 and the pAkt fold change (pAktS473; 100 µg, Cell lysate 1) was 3.58. The pAkt fold change (pAktS473; 100 µg, Cell lysate 2) was 2.56, the pAkt fold change (pAktS473; 100 µg, Cell lysate 3) was 1.82 and the “pAkt mean fold change” value (pAktS473; 100 µg) was 2.65. It also gave a pAkt fold change (pAktS473; 200 µg, Cell lysate 1) of 4.98, a pAkt fold change (pAktS473; 200 µg, Cell lysate 2) of 2.01 and a pAkt fold change (pAktS473; 200 µg, Cell lysate 3) of 1.89. For the same substance, the “pAkt mean fold change” value (pAktS473; 200 µg) was 2.96, the pAkt fold change (pAktS473; 300 µg, Cell lysate 1) was 4.64 and the pAkt fold change (pAktS473; 300 µg, Cell lysate 2) was 3.64. For the same substance, the pAkt fold change (pAktS473; 300 µg, Cell lysate 3) was 1.72, the “pAkt mean fold change” value (pAktS473; 300 µg) was 3.33 and the “downstream signalling (pcRaf, pAkt, pErk, pS6)” value [1] was “concentration-dependent activation of the downstream signalling”.
